Data: US20130059314A1, “FRET-BASED METHOD FOR THE DETERMINATION OF PROTEIN PHOSPHATASE AND KINASE ACTIVITY” (priority 2010, published 2013)

What was measured:
PP1/2A = assay: FRET-based phosphatase activity assay in PP1/2A buffer; type: biochemical; details: FIG. 9
Excerpt: FIG. 8 is a graph showing that in the PP1A/2A buffer, a linear range of phosphatase activity not attributable to calcineurin activity was detected.
(§1) Okadaic acid is a known inhibitor if PP1/2A.

Calcineurin = assay: FRET-based calcineurin activity assay with okadaic acid; type: biochemical; details: similar range of okadaic acid; FIG. 9
Description: as §1
2. Calcineurin activity was assessed by mixing equal parts lysate, RII or other peptide sample), and reacted for 5-10 mins at 30° C. Control reactions were included that contained known varying amounts of purified calcineurin to calculate a standard curve for each plate.
3. To stop the reaction, a solution of 10% acetyl nitrile and 0.01% acetic acid solution was added. This step was essential to reduce the pH of the reaction to below 3.5 and enable the binding of the titanium oxide beads to the target peptide.
4. FLUOR-titanium oxide beads were added with gentle shaking for 5 mins. Phosphorylated-peptides were retained on the beads producing a “shifted” TAMRA signal while non-phosphorylated peptides were unbound.
5. Reactions were neutralized with 0.35% ammonium hydroxide to return the pH to greater than 7 and the fluorescence of each sample will be read at 450 nm excitation/580 nm emission.
6. Calcineurin activity was then determined by calculating the slope and y-intercept of the standard curve and then extrapolating calcineurin activity from the fluorescence intensity.

With `C=C1[C@@H](O)[C@@H]2O[C@]3(CC[C@H](/C=C/[C@@H](C)[C@@H]4CC(C)=C[C@@]5(O[C@H](C[C@@](C)(O)C(=O)O)CC[C@H]5O)O4)O3)CC[C@H]2O[C@@H]1[C@@H](O)C[C@H](C)[C@H]1O[C@@]2(CCCCO2)CC[C@H]1C` [okadaic acid] the “phosphatase activity detected in the PP1/2A buffer, inhibition” value (PP1/2A) was “sensitive to inhibition with okadaic acid, in a dose-dependent fashion” and the “calcineurin activity, sensitivity to okadaic acid” value (Calcineurin) was “not sensitive to further reduction”.
